Test system: anaemia due to blood loss
Test: Patient 1: anaemia after surgical blood loss, treated while continuing Gaviscon (acid reducer)
Source text: The patient had been taking Gaviscon™ which contains potassium bicarbonate as an acid reducer to reduce acid reflux. […] They continued to take Gaviscon™ but was also given ferrous sulphate tablets for their anaemia.

In the case of `O=S(=O)([O-])[O-].[Fe+2]` [ferrous sulphate], the correction of anaemia (patient 1, continuing Gaviscon (potassium bicarbonate)) is reported as “failed to correct their anaemia” and the “tolerability / side effects” value (patient 1, continuing Gaviscon, maltol and ferrous gluconate at 45 mg/day) is reported as “serious side effects of gastric intolerance and severe headaches”.
